Experimental findings from patent publication US20250115600A1, “COVALENT MODIFIERS OF AKT1 AND USES THEREOF” (Terremoto Biosciences, Inc., priority 2022, published 2025) are described below.

Common to all, as to experiment: Live cell target engagement (NanoBRET) in HEK293 cells
Holding throughout (format): cell-based
(In BRET a luciferase serves as donor, and the signal depends on an acceptor being close.)

One test addresses AKT1 E17K (Homo sapiens (Human), UniProt P31749, E17K). The conditions noted are these: for IC50: HEK293, 2 hours at 37° C.
The target of a further test is AKT1 WT (Homo sapiens (Human), UniProt P31749). The conditions noted are these: HEK293, 2 hours at 37° C.
Another test deals with AKT2 (Homo sapiens (Human), UniProt P31751). To be noted: HEK293, 2 hours at 37° C.

For orientation: IC50 means the concentration at which inhibition is half-maximal. Low readings indicate greater potency, high ones weaker potency.

Where only a bound is given, the exact number is not on record here.

Chain of AKT1 WT (P31749 whole entry): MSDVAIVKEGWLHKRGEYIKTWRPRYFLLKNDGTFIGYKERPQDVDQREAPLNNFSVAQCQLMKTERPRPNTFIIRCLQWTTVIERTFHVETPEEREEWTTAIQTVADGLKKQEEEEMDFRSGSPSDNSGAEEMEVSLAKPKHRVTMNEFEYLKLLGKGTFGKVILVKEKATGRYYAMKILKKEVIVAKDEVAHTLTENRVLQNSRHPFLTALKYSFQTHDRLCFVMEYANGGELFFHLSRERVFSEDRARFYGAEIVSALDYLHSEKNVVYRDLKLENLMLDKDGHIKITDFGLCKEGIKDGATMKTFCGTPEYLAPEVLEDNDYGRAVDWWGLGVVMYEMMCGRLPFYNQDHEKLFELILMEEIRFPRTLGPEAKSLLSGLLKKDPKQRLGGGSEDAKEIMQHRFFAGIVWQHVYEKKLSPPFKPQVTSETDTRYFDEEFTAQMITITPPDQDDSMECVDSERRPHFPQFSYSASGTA
Chain of AKT2 (P31751 whole entry): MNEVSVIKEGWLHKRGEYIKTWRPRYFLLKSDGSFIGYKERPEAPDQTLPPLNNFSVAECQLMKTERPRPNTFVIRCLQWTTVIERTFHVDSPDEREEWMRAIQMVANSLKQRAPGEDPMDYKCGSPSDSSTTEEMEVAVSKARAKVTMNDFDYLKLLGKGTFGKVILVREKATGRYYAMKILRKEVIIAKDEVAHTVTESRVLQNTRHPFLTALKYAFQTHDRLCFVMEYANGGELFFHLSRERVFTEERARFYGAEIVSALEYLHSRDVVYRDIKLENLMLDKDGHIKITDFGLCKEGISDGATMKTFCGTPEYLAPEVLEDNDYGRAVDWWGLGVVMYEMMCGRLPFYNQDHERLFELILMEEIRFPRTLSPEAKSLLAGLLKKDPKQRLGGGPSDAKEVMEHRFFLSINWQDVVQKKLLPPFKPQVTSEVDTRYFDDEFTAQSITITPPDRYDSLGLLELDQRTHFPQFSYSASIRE
Chain of AKT1 E17K (P31749 whole entry E17K): as the sequence (P31749 whole entry) above, with E17K counted along it

In the case of `Nc1ncccc1-c1nc2ccc(-c3cccc(N4CCC(N5CCCC5=O)CC4)c3F)nc2n1-c1ccc(CNC(=O)Cc2ccc(C=O)c(O)c2)cc1` [Compound 42, N-({4-[2-(2-aminopyridin-3-yl)-5-{2-fluoro-3-[4-(2-oxopyrrolidin-1-yl)piperidin-1-yl]phenyl}imidazo[4,5-b]pyridin-3-yl]phenyl}methyl)-2-(4-formyl-3-hydroxyphenyl)acetamide], at AKT1 E17K, the “AKT1 E17K IC50: Selectivity vs AKT1 WT” value is reported as 1.7, the “AKT1 E17K IC50: Selectivity vs AKT2” value is listed as 4.8 and the IC50 was < 100 nM. For the same compound, the IC50 against AKT1 WT was < 100 nM. For the same compound, the IC50 on AKT2 was < 100 nM.

With `CN(C)C(=O)Nc1cc(CC(=O)NCc2ccc(-n3c(-c4cccnc4N)nc4cccnc43)cc2)ccc1C=O` [Compound 43, N-(4-(2-(2-aminopyridin-3-yl)-3H-imidazo[4,5-b]pyridin-3-yl)benzyl)-2-(3-(3,3-dimethylureido)-4-formylphenyl)acetamide], the “AKT1 E17K IC50: Selectivity vs AKT1 WT” value at AKT1 E17K is 4.5. The “AKT1 E17K IC50: Selectivity vs AKT2” value on AKT1 E17K was >150. The figures for the IC50 on AKT1 E17K, against AKT1 WT and on AKT2 were < 100 nM, 100 to 500 nM and > 500 nM, respectively.

For the compound `Cn1cc(C(=O)Nc2cc(CC(=O)NCc3ccc(-n4c(-c5cccnc5N)nc5cccnc54)cc3)ccc2C=O)cn1` [Compound 44, N-(5-(2-((4-(2-(2-aminopyridin-3-yl)-3H-imidazo[4,5-b]pyridin-3-yl)benzyl)amino)-2-oxoethyl)-2-formylphenyl)-1-methyl-1H-pyrazole-4-carboxamide], the “AKT1 E17K IC50: Selectivity vs AKT1 WT” value on AKT1 E17K was 3.6. For the same compound, the “AKT1 E17K IC50: Selectivity vs AKT2” value on AKT1 E17K was found to be 34. In addition, the IC50 was 100 to 500 nM at AKT1 E17K, > 500 nM against AKT1 WT and > 500 nM against AKT2.

Consider `Nc1ncccc1-c1nc2cccnc2n1-c1ccc(CNC(=O)c2cc(C=O)c(O)cn2)cc1` [Compound 45, N-(4-(2-(2-aminopyridin-3-yl)-3H-imidazo[4,5-b]pyridin-3-yl)benzyl)-4-formyl-5-hydroxypicolinamide], for which, at AKT1 E17K, the “AKT1 E17K IC50: Selectivity vs AKT1 WT” value was determined as 2.7, the “AKT1 E17K IC50: Selectivity vs AKT2” value is on record as >7.7 and the IC50 was > 500 nM. For the same compound, the IC50 at AKT1 WT is > 500 nM. In addition, the 50% inhibitory concentration (IC50) at AKT2 is > 500 nM.

On to `Nc1ncccc1-c1nc2cccnc2n1-c1ccc(CNC(=O)c2cnc(O)c(C=O)c2)cc1` [Compound 46, N-(4-(2-(2-aminopyridin-3-yl)-3H-imidazo[4,5-b]pyridin-3-yl)benzyl)-5-formyl-6-hydroxynicotinamide], for which the IC50 against AKT1 E17K, at AKT1 WT and against AKT2 was > 500 nM throughout.

For `Nc1ncccc1-c1nc2cccnc2n1-c1ccc(CNC(=O)c2ccc(O)c(C=O)n2)cc1` [Compound 47, N-(4-(2-(2-aminopyridin-3-yl)-3H-imidazo[4,5-b]pyridin-3-yl)benzyl)-6-formyl-5-hydroxypicolinamide], at AKT1 E17K, the “AKT1 E17K IC50: Selectivity vs AKT1 WT” value is 1.8, the “AKT1 E17K IC50: Selectivity vs AKT2” value worked out at 3.7 and the IC50 was > 500 nM. Besides, the IC50 against AKT1 WT is > 500 nM. The IC50 on AKT2 was > 500 nM.

As for `Nc1ncccc1-c1nc2cccnc2n1-c1ccc(CNC(=O)Cc2ccc(C=O)c(NC(=O)C3CC3)c2)cc1` [Compound 48, N-(5-(2-((4-(2-(2-aminopyridin-3-yl)-3H-imidazo[4,5-b]pyridin-3-yl)benzyl)amino)-2-oxoethyl)-2-formylphenyl)cyclopropanecarboxamide], on AKT1 E17K, the “AKT1 E17K IC50: Selectivity vs AKT1 WT” value worked out at 8.5, the “AKT1 E17K IC50: Selectivity vs AKT2” value is on record as 120 and the IC50 is < 100 nM. This compound also returned an IC50 against AKT1 WT of 100 to 500 nM. Further, the IC50 on AKT2 was > 500 nM.
